The values that follow come from patent US20110224245A1, “Treatment Of Neurological Disorders Using Huperzine” (President and Fellows of Harvard College, priority 2008, published 2011).

The test system of the assay is maximal electroshock seizure (MES). The assay can be described thus: Maximal Electroshock (MES) model, mice i.p. The format is in vivo. The note with it: 1 mg/kg. The procedure: Huperzine A was evaluated in the Maximal Electroshock (MES) and Subcutaneous Metrazol (pentylenetetrazol; SCMET) models of generalized tonic-clonic and myoclonic seizures, respectively in mice and rats.
The maximal electroshock (MES) model is an art recognized test, useful to investigate the efficacy of therapeutic agents against grand mal seizures. Maximal seizures were induced by the application of electrical current to the brain via corneal electrodes. The stimulus parameters for mice were 50 mA in a pulse of 60 Hz for 200 ms. The animals were given the huperzine dissolved in methyl cellulose and spasm inhibition was recorded as a measure of anticonvulsant activity.
Huperzine A was either administered in a soluble form (SOL) or as a suspension (SUS). […]
Male, 18-25 g CF1 mice and 100-125 g Sprague-Dawley rats (Charles River Laboratories, Wilmington, Mass.) were used as the experimental animals. […] The ability of the test substance to prevent seizures induced by 6 Hz corneal stimulation (32 mA, 3 sec duration) was assessed at various times after i.p. administration of 1 mg/kg HupA For assessment of hippocampal kindling, HupA (1 mg/kg, i.p.) was administered. The ability of the compound to block the expression of hippocampal kindled seizures was evaluated using the rapid hippocampal kindling model (White et al., 2002). […]
Background: The maximal electroshock test induces tonic seizures with an electrical stimulus.

Structures are written as SMILES.

With `C/C=C1\[C@H]2C=C(C)C[C@]1(N)c1ccc(=O)[nH]c1C2` [Huperzine A], the “protection in the mouse MES test (FIG. 1)” value is recorded as “time-dependent protection”.
